Laboratory results from patent US9145404B2, “Tetomilast polymorphs” (Otsuka Pharmaceutical Co., Ltd., priority 2006, dated 2015).

Key:
[1] = Crystal form after standing at 20° C. to 30° C., examined by powder X-ray diffraction; format: physicochemical; settings: left at a temperature between 20° C. and 30° C. for approximately 1 year
Protocol: (§1) The powder X-ray diffraction spectrum was measured in an angle of diffraction that ranged from 3° to 40°, according to the general test method of the Pharmacopoeia of Japan, using RAD-2B diffractometer (radiation source: CuKα) manufactured by Rigaku Denki. During the measurement, voltage/current was set at 35 kV/20 mA, and the scan speed was set at 5°/min.
(1) The anhydrous tetomilast type B crystal obtained in Reference example 1 (3) was left at a temperature between 20° C. and 30° C. for approximately 1 year, and thereafter, the crystal form thereof was examined by powder X-ray diffraction.

[2] = Transformation of type B crystal to type A crystal while stirred as a suspension in acetone-water, crystal form by powder X-ray diffraction; format: physicochemical; settings: 5 g suspended in 40 ml acetone and 10 ml water
Protocol: as §1
The mixing ratio of a mixture consisting of an anhydrous tetomilast type A crystal and an anhydrous tetomilast type B crystal was obtained by comparing the powder X-ray diffraction spectrum of the above mixture, with the powder X-ray diffraction spectrum of a mixture formed by mixing a pure anhydrous tetomilast type A crystal and a pure anhydrous tetomilast type B crystal at various ratios.
Thermal transformation from an anhydrous tetomilast type B crystal to an anhydrous tetomilast type A crystal was confirmed by the means described in (1) to (3) below:
(§2) (2) 5 g of the anhydrous tetomilast type B crystal obtained in Reference example 1 (3) was suspended in a solution consisting of 40 ml of acetone and 10 ml of water, and the obtained mixture was then stirred at 20° C. At that time, sampling was carried out at intervals of 15 minutes, 30 minutes, 60 minutes, and 120 minutes, and each of the obtained samples was subjected to powder X-ray diffraction to examine the crystal form.
as §2, with “(3)” for “(2)”, “40°” for “20°”, “form. As a result, it could be confirmed that the sample collected after stirring for 15 minutes was a mixture consisting of an anhydrous tetomilast type B crystal and an anhydrous tetomilast type A crystal (A:B=50:50).” for “form.”

Compound: CCOc1ccc(-c2nc(-c3cccc(C(=O)O)n3)cs2)cc1OCC [anhydrous tetomilast type B crystal, 2-(3,4-diethoxyphenyl)-4-(2-carboxy-6-pyridyl)thiazole]
- crystal form by powder X-ray diffraction [1]: maintained the form as an anhydrous tetomilast type B crystal
- crystal form by powder X-ray diffraction ([2]; stirred at 20° C., 15 minutes): maintained the form as an anhydrous tetomilast type B crystal
- crystal form by powder X-ray diffraction ([2]; stirred at 20° C., 30 minutes): maintained the form as an anhydrous tetomilast type B crystal
- crystal form by powder X-ray diffraction ([2]; stirred at 20° C., 60 minutes): maintained the form as an anhydrous tetomilast type B crystal
- crystal form by powder X-ray diffraction ([2]; stirred at 40° C., 30 minutes): changed to an anhydrous tetomilast type A crystal
- crystal form by powder X-ray diffraction ([2]; stirred at 40° C., 60 minutes): changed to an anhydrous tetomilast type A crystal
- crystal form by powder X-ray diffraction ([2]; stirred at 40° C., 120 minutes): changed to an anhydrous tetomilast type A crystal
